6 molecules from ChEMBL document CHEMBL2074052, “Human organic anion transporters and human organic cation transporters mediate renal antiviral transport” (J Pharmacol Exp Ther, 2002) can be followed below.

What all share (type): functional, cell-based
The target in series [1] is T1, OAT3 (Organic anion transporter 3) (Homo sapiens, UniProt Q8TCC7).
T1 sequence (Q8TCC7 whole entry): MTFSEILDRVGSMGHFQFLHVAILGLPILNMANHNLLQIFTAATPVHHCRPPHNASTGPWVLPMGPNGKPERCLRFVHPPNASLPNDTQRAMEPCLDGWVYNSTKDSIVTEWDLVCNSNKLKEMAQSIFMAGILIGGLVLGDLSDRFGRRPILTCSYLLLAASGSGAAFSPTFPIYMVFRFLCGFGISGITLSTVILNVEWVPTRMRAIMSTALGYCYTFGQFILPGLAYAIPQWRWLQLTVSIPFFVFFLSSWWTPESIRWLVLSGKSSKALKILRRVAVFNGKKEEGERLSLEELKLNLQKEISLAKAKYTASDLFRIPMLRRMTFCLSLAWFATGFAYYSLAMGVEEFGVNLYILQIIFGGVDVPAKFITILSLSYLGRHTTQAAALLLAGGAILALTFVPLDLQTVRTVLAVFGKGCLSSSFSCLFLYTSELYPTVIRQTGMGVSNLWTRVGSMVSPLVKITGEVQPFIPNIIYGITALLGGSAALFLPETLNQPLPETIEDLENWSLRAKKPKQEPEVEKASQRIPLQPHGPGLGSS
Nature of the series: TP_TRANSPORTER: inhibition of Estrone sulfate uptake (E1S: 0.05 uM, ACV: 1000 uM) in OAT3-expressing S2 cells. On the set-up: scale not given: the % may be the effect or the level left. The settings on record: mouse, probe Estrone sulfate (E1S), read-out: Activity.

Series [2] concerns the target T2, OAT1 (Solute carrier family 22 member 6) (Homo sapiens, UniProt Q4U2R8).
T2 sequence (Q4U2R8 whole entry): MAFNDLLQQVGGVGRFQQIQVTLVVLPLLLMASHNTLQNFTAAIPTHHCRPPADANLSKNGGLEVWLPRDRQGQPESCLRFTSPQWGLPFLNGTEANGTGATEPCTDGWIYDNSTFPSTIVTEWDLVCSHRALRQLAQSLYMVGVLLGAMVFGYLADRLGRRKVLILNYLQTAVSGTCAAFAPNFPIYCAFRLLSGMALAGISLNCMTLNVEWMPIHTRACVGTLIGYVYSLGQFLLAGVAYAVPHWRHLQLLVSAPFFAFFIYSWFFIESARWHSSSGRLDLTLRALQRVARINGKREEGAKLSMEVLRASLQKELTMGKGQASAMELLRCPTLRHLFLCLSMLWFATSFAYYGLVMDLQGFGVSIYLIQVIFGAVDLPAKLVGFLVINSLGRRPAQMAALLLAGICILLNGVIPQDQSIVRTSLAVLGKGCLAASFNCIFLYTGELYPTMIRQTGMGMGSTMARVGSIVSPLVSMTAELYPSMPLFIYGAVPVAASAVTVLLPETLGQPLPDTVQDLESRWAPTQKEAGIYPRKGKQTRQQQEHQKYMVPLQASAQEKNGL
Nature of the series: TP_TRANSPORTER: inhibition of PAH uptake (PAH: 5 uM, ACV: 1000 uM) in OAT1-expressing S2 cells. On the set-up: scale not given: the % may be the effect or the level left. The settings on record: probe PAH, read-out: Activity.

Series [3] deals with T3, OCT1 (Solute carrier family 22 member 1) (Homo sapiens, UniProt O15245).
T3 sequence (O15245 whole entry): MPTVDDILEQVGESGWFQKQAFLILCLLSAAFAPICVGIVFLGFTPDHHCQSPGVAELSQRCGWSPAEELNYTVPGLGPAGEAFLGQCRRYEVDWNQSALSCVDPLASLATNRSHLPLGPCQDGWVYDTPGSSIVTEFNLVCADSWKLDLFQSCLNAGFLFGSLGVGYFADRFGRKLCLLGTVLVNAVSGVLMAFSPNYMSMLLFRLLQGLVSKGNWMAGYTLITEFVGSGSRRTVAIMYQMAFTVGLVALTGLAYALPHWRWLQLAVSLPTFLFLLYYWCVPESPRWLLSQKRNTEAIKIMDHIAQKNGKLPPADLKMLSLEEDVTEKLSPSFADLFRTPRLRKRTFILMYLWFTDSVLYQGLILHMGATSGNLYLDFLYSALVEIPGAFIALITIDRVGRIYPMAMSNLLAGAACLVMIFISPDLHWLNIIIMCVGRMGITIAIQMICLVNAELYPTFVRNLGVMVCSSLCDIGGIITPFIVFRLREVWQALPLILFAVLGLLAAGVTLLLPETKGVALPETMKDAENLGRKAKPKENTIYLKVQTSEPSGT
In words: TP_TRANSPORTER: inhibition of TEA uptake (TEA: 5 uM, ACV: 1000 uM) in OCT1-expressing S2 cells. The settings on record: probe TEA, read-out: Activity. Set-up: scale not given: the % may be the effect or the level left.

For series [4], the target named is T1, OAT3 (Organic anion transporter 3). Nature of the series: (§1) TP_TRANSPORTER: uptake in OAT3-expressing S2 cells. The settings on record: mouse.
Series [5] has as its target T4, OAT2 (Solute carrier family 22 member 7) (Homo sapiens, UniProt Q9Y694).
T4 sequence (Q9Y694 whole entry): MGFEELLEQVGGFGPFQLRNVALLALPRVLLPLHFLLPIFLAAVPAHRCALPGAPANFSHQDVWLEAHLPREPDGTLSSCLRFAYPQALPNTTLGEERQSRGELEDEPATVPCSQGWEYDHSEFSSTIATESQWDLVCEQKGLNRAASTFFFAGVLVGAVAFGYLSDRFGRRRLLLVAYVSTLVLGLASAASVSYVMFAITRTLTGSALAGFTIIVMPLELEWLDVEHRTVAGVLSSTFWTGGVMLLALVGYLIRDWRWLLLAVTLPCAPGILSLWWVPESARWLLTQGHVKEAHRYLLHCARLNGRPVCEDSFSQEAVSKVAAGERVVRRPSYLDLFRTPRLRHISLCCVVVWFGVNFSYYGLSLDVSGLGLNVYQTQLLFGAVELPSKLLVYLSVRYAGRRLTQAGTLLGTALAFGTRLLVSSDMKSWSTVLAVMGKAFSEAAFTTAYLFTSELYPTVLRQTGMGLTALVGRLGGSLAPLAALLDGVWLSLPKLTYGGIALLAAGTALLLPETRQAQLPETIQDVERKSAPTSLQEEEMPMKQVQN
In words: TP_TRANSPORTER: inhibition of PGF2alpha uptake (PGF2alpha: 0.005 uM, AZT: 1000 uM) in OAT2-expressing S2 cells. The following applies: probe PGF2alpha, read-out: Activity. On the set-up: scale not given: the % may be the effect or the level left.

In series [6] the target is T5, OAT4 (Solute carrier family 22 member 11) (Homo sapiens, UniProt Q9NSA0).
T5 sequence (Q9NSA0 whole entry): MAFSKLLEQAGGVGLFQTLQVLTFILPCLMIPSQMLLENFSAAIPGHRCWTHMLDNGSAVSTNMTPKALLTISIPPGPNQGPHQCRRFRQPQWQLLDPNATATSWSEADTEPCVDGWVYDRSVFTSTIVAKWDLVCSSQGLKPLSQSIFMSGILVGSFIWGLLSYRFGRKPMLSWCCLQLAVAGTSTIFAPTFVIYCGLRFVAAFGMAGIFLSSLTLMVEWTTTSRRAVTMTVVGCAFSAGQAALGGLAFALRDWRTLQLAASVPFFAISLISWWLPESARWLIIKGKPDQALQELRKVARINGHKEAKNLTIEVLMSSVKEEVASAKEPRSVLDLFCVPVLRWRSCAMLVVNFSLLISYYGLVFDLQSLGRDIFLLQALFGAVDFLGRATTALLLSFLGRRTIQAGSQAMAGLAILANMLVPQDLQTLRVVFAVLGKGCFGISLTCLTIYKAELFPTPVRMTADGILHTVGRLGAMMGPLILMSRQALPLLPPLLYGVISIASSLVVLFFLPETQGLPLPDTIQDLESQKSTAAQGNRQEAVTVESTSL
In words: TP_TRANSPORTER: inhibition of E1S uptake (E1S: 0.05 uM, AZT: 1000 uM) in OAT4-expressing S2 cells. Set-up: scale not given: the % may be the effect or the level left. The settings on record: mouse, probe E1S, read-out: Activity.

Series [7] concerns the target T1, OAT3 (Organic anion transporter 3). Nature of the series: TP_TRANSPORTER: inhibition of E1S uptake (E1S: 0.05 uM, AZT: 1000 uM) in OAT3-expressing S2 cells. Set-up: scale not given: the % may be the effect or the level left. The following applies: mouse, probe E1S, read-out: Activity.
Series [8] addresses T2, OAT1 (Solute carrier family 22 member 6). Nature of the series: (§2) TP_TRANSPORTER: uptake in OAT1-expressing S2 cells.
Series [9] shares this target. In words: TP_TRANSPORTER: inhibition of PAH uptake (PAH: 5 uM, AZT: 1000 uM) in OAT1-expressing S2 cells. The settings on record: mouse, probe PAH, read-out: Activity. On the set-up: scale not given: the % may be the effect or the level left.
In series [10] the target is T4, OAT2 (Solute carrier family 22 member 7). Nature of the series: TP_TRANSPORTER: uptake in OAT2-expressing S2 cells.
Series [11] deals with T5, OAT4 (Solute carrier family 22 member 11). Nature of the series: TP_TRANSPORTER: uptake in OAT4-expressing S2 cells.
Series [12] has as its target T4, OAT2 (Solute carrier family 22 member 7). In words: TP_TRANSPORTER: inhibition of PGF2alpha uptake (PGF2alpha: 0.005 uM, GCV: 1000 uM) in OAT2-expressing S2 cells. On the set-up: scale not given: the % may be the effect or the level left. The settings on record: probe PGF2alpha, read-out: Activity.
Series [13] addresses T1, OAT3 (Organic anion transporter 3). Nature of the series: TP_TRANSPORTER: inhibition of E1S uptake (E1S: 0.05 uM, GCV: 1000 uM) in OAT3-expressing S2 cells. Set-up: scale not given: the % may be the effect or the level left. The settings on record: mouse, probe E1S, read-out: Activity.
The target in series [14] is T3, OCT1 (Solute carrier family 22 member 1). In words: TP_TRANSPORTER: inhibition of TEA uptake (TEA: 5 uM, GCV: 1000 uM) in OCT1-expressing S2 cells. On the set-up: scale not given: the % may be the effect or the level left. The settings on record: probe TEA, read-out: Activity.
The target of series [15] is T2, OAT1 (Solute carrier family 22 member 6). Nature of the series: TP_TRANSPORTER: inhibition of PAH uptake (PAH: 5 uM, GCV: 1000 uM) in OAT1-expressing S2 cells. On the set-up: scale not given: the % may be the effect or the level left. The settings on record: mouse, probe PAH, read-out: Activity.
Substrate in series [16]: Nc1nc(O)c2ncn(COC(CO)CO)c2n1
In words: (§3) TP_TRANSPORTER: uptake in OCT1-expressing S2 cells.

Substrate in series [17]: Nc1nc2c(ncn2COCCO)c(=O)[nH]1
Described as §3.

Substrate in series [18]: Nc1nc(O)c2ncn(COC(CO)CO)c2n1
The description is as §2.

Substrate in series [19]: Nc1nc2c(ncn2COCCO)c(=O)[nH]1
The description is as §2.

Substrate in series [20]: CC(C)[C@H](N)C(=O)OCCOCn1cnc2c(=O)[nH]c(N)nc21
Described as §1.

The Km is the substrate concentration at which the rate is half of its maximum.

`Nc1nc2c(ncn2COCCO)c(=O)[nH]1` [ACYCLOVIR]: the activity at 1000 µM in [1] worked out at 64.3%; in series [2], 67%; in series [3], 88.4%.

Take `Cc1cn([C@H]2C[C@H](N=[N+]=[N-])[C@@H](CO)O2)c(=O)[nH]c1=O` [ZIDOVUDINE]: the Km came out at 145 µM in series [4], 45.9 µM in series [8], 26.8 µM in series [10] and 152 µM in series [11]. Further, the activity at 1000 µM amounted to 76.7% in series [5], 84.2% in [6], 70% in [7] and 30.7% in series [9].

As to `Nc1nc(O)c2ncn(COC(CO)CO)c2n1` [GANCICLOVIR], the activity at 1000 µM stood at 63.3% in series [12], 74.3% in series [13], 88.3% in series [14] and 87.1% in series [15].

B1: Solute carrier family 22 member 1 (Homo sapiens) (protein)
chain: T3 sequence (O15245 whole entry)
With B1, the Km in series [16] was 516 µM; in series [17], 151 µM.

B2: Solute carrier family 22 member 6 (Homo sapiens) (protein)
chain: T2 sequence (Q4U2R8 whole entry)
For B2, the figures for the Km in series [18] and in [19] were 896 µM and 342 µM, respectively.

B3: Organic anion transporter 3 (Homo sapiens) (protein)
chain: T1 sequence (Q8TCC7 whole entry)
In the case of B3, in series [20], the Km worked out at 57.9 µM.
